Positions of bridges follow the written chain, without caps; N, C: chain ends. Residues, ends and D or L forms follow the SMILES beside them. No end group written: not given here.
What was measured:
human GC-B = biological target: T1, human GC-B (Homo sapiens, UniProt P20594); assay: Intracellular cGMP in GC-B transfected HEK293 cells; format: cell-based; settings: 10 nM peptide, 15 min
T1 construct: expressed in transfected cells; host or cells: HEK293, transient, pCDNA1.1 (CMV promoter)
T1 sequence (P20594 23-1047): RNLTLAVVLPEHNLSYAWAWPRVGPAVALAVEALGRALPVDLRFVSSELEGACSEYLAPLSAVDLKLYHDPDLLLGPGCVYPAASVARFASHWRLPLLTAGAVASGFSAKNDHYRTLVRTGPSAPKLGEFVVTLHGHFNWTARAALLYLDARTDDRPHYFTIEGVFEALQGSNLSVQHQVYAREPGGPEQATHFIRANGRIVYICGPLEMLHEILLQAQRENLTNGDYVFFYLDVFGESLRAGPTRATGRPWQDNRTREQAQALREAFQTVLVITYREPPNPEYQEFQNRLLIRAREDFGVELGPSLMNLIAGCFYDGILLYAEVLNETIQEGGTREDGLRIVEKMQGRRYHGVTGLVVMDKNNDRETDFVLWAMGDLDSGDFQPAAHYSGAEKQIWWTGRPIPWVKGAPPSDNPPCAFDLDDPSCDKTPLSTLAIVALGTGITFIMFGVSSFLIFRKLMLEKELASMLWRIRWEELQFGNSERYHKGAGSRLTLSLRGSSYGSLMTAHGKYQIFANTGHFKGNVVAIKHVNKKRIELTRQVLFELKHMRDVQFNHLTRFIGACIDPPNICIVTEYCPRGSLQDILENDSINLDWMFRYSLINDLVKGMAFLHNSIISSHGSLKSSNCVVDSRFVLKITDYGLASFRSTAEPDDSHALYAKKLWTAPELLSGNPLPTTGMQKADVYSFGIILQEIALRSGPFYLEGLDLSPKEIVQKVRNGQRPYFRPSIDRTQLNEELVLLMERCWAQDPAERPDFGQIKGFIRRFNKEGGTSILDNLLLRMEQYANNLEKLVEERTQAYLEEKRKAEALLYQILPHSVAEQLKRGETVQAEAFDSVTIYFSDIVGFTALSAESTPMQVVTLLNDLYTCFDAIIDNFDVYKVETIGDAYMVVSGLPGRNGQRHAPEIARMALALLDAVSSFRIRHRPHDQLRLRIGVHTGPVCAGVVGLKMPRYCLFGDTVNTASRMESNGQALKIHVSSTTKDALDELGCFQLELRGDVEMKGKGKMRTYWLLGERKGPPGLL

[1] = system: foetal mouse tibial organ culture; settings: ex vivo foetal mouse tibia; cited from earlier work
[2] = system: primary rat osteoblastic cultures; settings: cited from earlier work
ATDC5 cells = assay: cGMP production in ATDC5 cells; format: cell-based, mouse; settings: for cGMP production by peptide alone: 0.1 μM
Source text: (§1) To gain further insight into the cellular basis of the interaction between CNP and Ostn in endochondral bone formation, ATDC5 cells were used. These cells are a mouse chondrogenic cell line derived from embryogenic carcinoma cells (Shukunami et al., 1996). […] In another study, NPR-C was also found to be expressed in these cells and the amount of transcripts decreased in association with the chondrogenic differentiation (Fujishige et al., 1999). Therefore, ATDC5 cells are considered to be a good model to study the interaction between CNP and Ostn in vitro.
(§2) Cold and radio iodinated human Ostn[83-133] (SEQ ID NO: 41) were purchased from Phoenix Pharmaceutical co. (CA, USA). CNP was obtained from Sigma (St. Louis, USA) and rat C-ANF was purchased from Bachem (CA, USA). Cyclic GMP direct Biotrak™ EIA kit was obtained from Amersham Biosciences (Quebec, Canada) and DMEM/F-12 and PBS were obtained from Wisent (Quebec, Canada). Protease inhibitors were purchased from Roche (Quebec, Canada)
Cells, grown in 24-well plates to 90% confluence, were washed twice with PBS and incubated in DMEM/F12 containing 1 mM IBMX, a protease inhibitor cocktail (40 ul/ml of medium), 0.1% BSA with or without C-ANF (0.1 μM) or Ostn[83-133] (0.1 μM) for 10 min at 37° C. prior to the addition of varying concentrations of CNP. They were then incubated for 15 min. After incubation, cells were washed twice with PBS and scraped in ice-cold ethanol (65%). The supernatant, obtained by centrifuging at 2000×g for 15 min at 4° C., was evaporated to dryness via speed vac. The amount of cGMP was measured with cGMP direct Biotrak™ EIA kit.

NPR-C [3] = biological target: T2, NPR-C (Homo sapiens, UniProt P17342); assay: ANP-stimulated cGMP in NPR-C overexpressing HEK293 cells; format: cell-based; settings: NPR-C overexpressing cells, 0.1 nM ANP[1-28] alone
T2 construct: expressed in transfected cells; host or cells: HEK293, transient, pCDNA1.1 (CMV promoter)
T2 sequence (P17342 27-541): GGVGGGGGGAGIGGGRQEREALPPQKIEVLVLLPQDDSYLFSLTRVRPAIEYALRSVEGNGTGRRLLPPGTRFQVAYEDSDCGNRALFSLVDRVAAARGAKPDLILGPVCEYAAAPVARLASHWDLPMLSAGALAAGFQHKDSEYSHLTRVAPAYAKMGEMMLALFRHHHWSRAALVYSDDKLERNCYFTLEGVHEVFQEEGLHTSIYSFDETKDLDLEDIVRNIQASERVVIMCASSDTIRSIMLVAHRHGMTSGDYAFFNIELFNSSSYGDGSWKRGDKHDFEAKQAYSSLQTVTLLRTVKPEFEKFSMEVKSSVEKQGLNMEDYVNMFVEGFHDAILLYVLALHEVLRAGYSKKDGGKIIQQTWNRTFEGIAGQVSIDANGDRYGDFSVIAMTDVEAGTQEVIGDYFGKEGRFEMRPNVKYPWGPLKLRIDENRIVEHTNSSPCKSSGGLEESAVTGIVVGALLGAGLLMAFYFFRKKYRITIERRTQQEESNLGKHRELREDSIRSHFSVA
Source text: The expression plasmid for rat GC-A containing the entire coding sequence cloned between the NheI-KpnI sites of CMV-driven pBK plasmid (Stratagene, La Jolla, Calif.) was kindly provided by Dr. A. De Léan (Département de Pharmacologie, Université de Montréal). The human NPR-C and GC-B coding sequences were amplified by RT-PCR from human embryonic kidney polyA RNA (Clontech, Palo Alto, Calif.) with the following primer pairs: NPR-C-5′-[…]-3′(forward) (SEQ ID NO: 74) and 5′-[…]-3′ (SEQ ID NO: 75) (reverse); GC-B-5′-[…]-3′ (SEQ ID NO: 76) (forward) and 5′-[…]-3′ (SEQ ID NO: 77) (reverse). The resulting PCR products were then cloned downstream of the CMV-promoter into the pCDNA1.1 plasmid (Invitrogen, Burlington, ON, Canada). All constructs were validated by DNA sequencing.

NPR-C [4] = biological target: T3, NPR-C (Mus musculus, UniProt P70180); assay: Competitive binding of 125I-Ostn[83-133] on ATDC5 cells
T3 construct: NPR-C was also found to be expressed in these cells; endogenous in cells; host or cells: ATDC5 (mouse chondrogenic cell line), intact cells
T3 sequence (P70180 41-536): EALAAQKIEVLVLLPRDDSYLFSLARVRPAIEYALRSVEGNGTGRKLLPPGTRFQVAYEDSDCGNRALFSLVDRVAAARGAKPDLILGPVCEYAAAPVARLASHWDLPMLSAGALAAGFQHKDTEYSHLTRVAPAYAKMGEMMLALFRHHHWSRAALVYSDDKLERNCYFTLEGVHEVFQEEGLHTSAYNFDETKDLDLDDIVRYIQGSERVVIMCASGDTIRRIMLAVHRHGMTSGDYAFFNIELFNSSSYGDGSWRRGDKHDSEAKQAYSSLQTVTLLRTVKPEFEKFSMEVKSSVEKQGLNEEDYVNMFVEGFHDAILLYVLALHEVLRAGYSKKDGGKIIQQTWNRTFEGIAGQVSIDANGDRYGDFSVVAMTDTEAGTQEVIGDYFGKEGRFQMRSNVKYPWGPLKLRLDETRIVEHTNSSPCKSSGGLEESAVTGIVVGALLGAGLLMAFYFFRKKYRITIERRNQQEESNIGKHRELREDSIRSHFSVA
Source text: as §1, with “1999).” for “1999). Therefore, ATDC5 cells are considered to be a good model to study the interaction between CNP and Ostn in vitro.”
as §2
ATDC5 cells, grown in 24-well plates to 90% confluence, were washed twice with cold PBS and incubated with 500 μl of DMEM/F-F12 containing 0.1% BSA (wt/vol), protease inhibitor (40 μl/ml of medium), ^1251-Ostn[83-133] (0.05 μCi/well) and varying concentration of cold Ostn[83-133] (SEQ ID NO: 41) for 90 min at 4° C. After incubation, cells were washed twice with ice-cold PBS and solubilized with 0.5-ml of 0.5 M NaOH.
The radioactivity was measured with gamma-counter (Wallac).

Row | intracellular cGMP response via GC-B (human GC-B) | increase in cGMP levels upon ANP stimulation (NPR-C [3]) | inhibition of bound 125I-Ostn[83-133] (NPR-C [4]; 1 μM cold peptide) | total binding (NPR-C [4]; ATDC5 cells, 24-well plates) | Compound | effect on bone length [1] | effect on osteoblast differentiation [2] | effect on proliferation [2] | cGMP production (ATDC5 cells; varying concentrations of CNP, 15 min) | IC50 (NPR-C [4]) | maximal inhibition, less than that of cold Ostn[83-133] (NPR-C [4]; 1 μM) | cGMP production by peptide alone (ATDC5 cells)
1 | greatest responses |  |  |  | CNP: natriuretic peptide CNP (1-22) from Sigma; GC-B selective agonist | significant increases in bone length | stimulated osteoblast differentiation | inhibited proliferation | concentration-dependent cGMP production |  |  | 
2 |  | 1.5 fold |  |  | CC[C@H](C)[C@@H]1NC(=O)[C@H](CCCNC(=N)N)NC(=O)[C@H](CC(=O)O)NC(=O)[C@H](CCSC)NC(=O)[C@H](CCCNC(=N)N)NC(=O)CNC(=O)CNC(=O)[C@H](Cc2ccccc2)NC(=O)[C@@H](NC(=O)[C@H](CO)NC(=O)[C@H](CO)NC(=O)[C@H](CCCNC(=N)N)NC(=O)[C@H](CCCNC(=N)N)NC(=O)[C@H](CC(C)C)NC(=O)[C@@H](N)CO)CSSC[C@@H](C(=O)N[C@@H](CC(N)=O)C(=O)N[C@@H](CO)C(=O)N[C@@H](Cc2ccccc2)C(=O)N[C@@H](CCCNC(=N)N)C(=O)N[C@@H](Cc2ccc(O)cc2)C(=O)O)NC(=O)CNC(=O)[C@H](CC(C)C)NC(=O)CNC(=O)[C@H](CO)NC(=O)[C@H](CCC(N)=O)NC(=O)[C@H](C)NC(=O)CNC1=O [ANP] |  | stimulated osteoblast differentiation | inhibited proliferation |  |  |  | 
3 |  |  |  |  | CC[C@H](C)[C@@H]1NC(=O)[C@H](CCCNC(=N)N)NC(=O)[C@H](CC(=O)O)NC(=O)[C@H]([C@@H](C)CC)NC(=O)[C@H](CCCNC(=N)N)NC(=O)CNC(=O)CNC(=O)[C@H](Cc2ccccc2)NC(=O)[C@@H](NC(=O)[C@H](CO)NC(=O)[C@H](CO)NC(=O)[C@@H](N)CCCNC(=N)N)CSSC[C@@H](C(N)=O)NC(=O)[C@H](C)NC(=O)CNC1=O [C-ANF] (H-RSSCFGGRIDRIGAC-NH2; disulfide 4-15; N-terminus and C-terminus assumed) | no effect | no effect |  |  | 6.7 nM | 15% | only trace of cGMP production
4 |  |  | More than 90% | 76.5 pmol/well | SFSGFGSPLDRLSAGSVDHKGKQRKVVDHPKRRFGIPMDRIGRNRLSNSRG [Ostn[83-133]] |  |  |  |  |  |  | only trace of cGMP production
